Measurements from patent US7871808B2, “Isolated microorganism having an ability to produce L-histidine” (priority 1999, dated 2011).
Where a name gives a salt, the structure may show the parent alone.

Test system: mutant strain H-9341
Experiment: Comparative test of growth on agar plate culture medium containing primaquine (mutant strain)
Assay type: cell-based, Escherichia coli
Conditions: 150 mg/liter primaquine disodium salt in agar plate medium, 1 to 10 cells/cm^2, 33° C. for 4 days

## COc1cc(NC(C)CCCN)c2ncccc2c1 (stereo not shown) [Primaquine disodium salt, primaquine disodium salt]
  Growth or non-growth of the strain on agar plate medium: +
